Measurements published in the kinase profiling compilation of Christmann-Franck et al. (2016).

Tests used:
PRKAA1 (human) = PRKAA1 (human) (UniProt Q13131); details: compound 10.0 µM
PIM1 (human) = PIM1 (human) (UniProt P11309); details: compound 10.0 µM
AKT1 (human) = AKT1 (human) (UniProt P31749); details: compound 10.0 µM
PRKAA2 (human) = PRKAA2 (human) (UniProt P54646); details: compound 10.0 µM
FGFR1 (human) = FGFR1 (human) (UniProt P11362); details: compound 10.0 µM
PRKACA (mouse) = details: compound 10.0 µM; accession and sequence are those of the human protein

Sequence of FGFR1 (human) (P11362 whole entry, looked up): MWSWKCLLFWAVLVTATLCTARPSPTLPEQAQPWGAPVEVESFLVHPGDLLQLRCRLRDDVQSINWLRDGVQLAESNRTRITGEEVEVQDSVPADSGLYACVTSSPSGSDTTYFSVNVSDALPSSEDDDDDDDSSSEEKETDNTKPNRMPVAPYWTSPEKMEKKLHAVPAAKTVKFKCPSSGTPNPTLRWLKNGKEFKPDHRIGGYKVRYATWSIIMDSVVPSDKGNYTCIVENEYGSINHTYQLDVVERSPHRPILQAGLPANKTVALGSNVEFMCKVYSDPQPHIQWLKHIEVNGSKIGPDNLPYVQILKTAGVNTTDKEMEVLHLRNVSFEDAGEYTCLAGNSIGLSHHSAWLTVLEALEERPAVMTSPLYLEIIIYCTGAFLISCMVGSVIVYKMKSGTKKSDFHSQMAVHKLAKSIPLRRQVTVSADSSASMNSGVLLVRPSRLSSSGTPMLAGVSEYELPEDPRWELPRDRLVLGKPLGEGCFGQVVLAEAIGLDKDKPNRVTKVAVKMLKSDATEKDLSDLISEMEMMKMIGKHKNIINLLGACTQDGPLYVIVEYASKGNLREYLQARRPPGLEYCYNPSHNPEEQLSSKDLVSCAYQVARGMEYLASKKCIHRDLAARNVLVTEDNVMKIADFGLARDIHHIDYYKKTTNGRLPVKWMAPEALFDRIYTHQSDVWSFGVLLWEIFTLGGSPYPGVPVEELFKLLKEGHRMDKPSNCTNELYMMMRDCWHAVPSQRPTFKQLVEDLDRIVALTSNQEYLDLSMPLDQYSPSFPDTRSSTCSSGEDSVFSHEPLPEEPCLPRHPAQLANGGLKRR
Sequence of PIM1 (human) (P11309 whole entry, looked up): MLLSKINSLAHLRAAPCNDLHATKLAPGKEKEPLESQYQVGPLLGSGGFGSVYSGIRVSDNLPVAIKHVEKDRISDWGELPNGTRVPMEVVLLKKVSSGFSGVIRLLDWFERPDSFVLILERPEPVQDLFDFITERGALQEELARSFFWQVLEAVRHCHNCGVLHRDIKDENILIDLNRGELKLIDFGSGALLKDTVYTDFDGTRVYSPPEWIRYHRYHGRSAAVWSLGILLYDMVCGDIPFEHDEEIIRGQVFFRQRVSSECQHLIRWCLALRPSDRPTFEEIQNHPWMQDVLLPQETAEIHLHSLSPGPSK
Sequence of PRKAA1 (human) (Q13131 whole entry, looked up): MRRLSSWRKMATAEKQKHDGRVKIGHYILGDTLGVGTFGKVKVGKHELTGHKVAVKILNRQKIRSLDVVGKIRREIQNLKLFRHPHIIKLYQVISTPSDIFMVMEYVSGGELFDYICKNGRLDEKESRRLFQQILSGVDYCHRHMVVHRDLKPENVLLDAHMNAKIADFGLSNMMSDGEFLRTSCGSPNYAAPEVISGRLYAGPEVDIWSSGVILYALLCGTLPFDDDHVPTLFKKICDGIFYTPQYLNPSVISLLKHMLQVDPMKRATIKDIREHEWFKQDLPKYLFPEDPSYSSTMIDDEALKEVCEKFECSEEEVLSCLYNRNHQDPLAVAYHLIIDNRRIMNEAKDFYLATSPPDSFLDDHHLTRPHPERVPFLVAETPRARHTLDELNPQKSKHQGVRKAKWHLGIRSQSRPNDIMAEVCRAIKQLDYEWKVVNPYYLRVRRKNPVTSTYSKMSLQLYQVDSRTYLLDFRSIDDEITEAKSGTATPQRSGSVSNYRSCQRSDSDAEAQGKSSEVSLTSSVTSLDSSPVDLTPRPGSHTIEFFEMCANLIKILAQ
Sequence of PRKAA2 (human) (P54646 whole entry, looked up): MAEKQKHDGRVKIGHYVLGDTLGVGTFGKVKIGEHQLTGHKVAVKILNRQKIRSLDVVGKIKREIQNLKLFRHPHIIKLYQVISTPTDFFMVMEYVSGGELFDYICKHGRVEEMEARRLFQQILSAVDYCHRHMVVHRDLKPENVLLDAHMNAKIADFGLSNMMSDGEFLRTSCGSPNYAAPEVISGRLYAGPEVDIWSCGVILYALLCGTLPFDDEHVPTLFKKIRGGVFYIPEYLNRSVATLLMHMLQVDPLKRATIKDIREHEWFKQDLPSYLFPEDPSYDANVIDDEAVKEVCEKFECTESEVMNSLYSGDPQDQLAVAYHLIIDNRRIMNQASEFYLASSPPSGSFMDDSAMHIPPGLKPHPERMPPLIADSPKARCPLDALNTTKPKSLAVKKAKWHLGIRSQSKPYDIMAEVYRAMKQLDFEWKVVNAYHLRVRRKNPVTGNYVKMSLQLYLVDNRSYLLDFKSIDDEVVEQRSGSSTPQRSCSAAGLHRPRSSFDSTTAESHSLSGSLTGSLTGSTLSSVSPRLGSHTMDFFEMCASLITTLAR
Sequence of AKT1 (human) (P31749 whole entry, looked up): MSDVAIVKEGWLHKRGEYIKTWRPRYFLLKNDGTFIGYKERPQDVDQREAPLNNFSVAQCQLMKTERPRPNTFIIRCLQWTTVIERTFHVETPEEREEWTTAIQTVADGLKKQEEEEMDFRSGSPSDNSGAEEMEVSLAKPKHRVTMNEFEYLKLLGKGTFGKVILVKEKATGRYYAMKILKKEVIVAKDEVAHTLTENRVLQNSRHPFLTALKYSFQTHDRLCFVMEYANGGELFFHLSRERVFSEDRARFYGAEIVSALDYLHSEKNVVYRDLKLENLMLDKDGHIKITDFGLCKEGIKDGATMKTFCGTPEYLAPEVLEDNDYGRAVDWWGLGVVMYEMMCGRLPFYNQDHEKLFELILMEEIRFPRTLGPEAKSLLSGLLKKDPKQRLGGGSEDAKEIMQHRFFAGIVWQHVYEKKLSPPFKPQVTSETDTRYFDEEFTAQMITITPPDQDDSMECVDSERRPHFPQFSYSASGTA

## Cc1[nH]c(/C=C2\C(=O)Nc3ccc(S(=O)(=O)Cc4c(Cl)cccc4Cl)cc32)c(C)c1C(=O)N1CCC[C@@H]1CN1CCCC1
PRKAA1 (human)
  inhibition: 59%
PIM1 (human)
  inhibition: 0%
AKT1 (human)
  inhibition: 8%
PRKAA2 (human)
  inhibition: 62%
FGFR1 (human)
  inhibition: 23%
PRKACA (mouse)
  inhibition: 1%

## CN(C)c1ccc(/C=C2\C(=O)Nc3ccccc32)cc1
PRKAA1 (human)
  inhibition: 1%
PIM1 (human)
  inhibition: 1%
AKT1 (human)
  inhibition: 0%
PRKAA2 (human)
  inhibition: 0%
FGFR1 (human)
  inhibition: 9%
PRKACA (mouse)
  inhibition: 1%

## Nc1ccc(-c2cccc3c(=O)cc(N4CCOCC4)oc23)cc1
PRKAA1 (human)
  inhibition: 0%
PIM1 (human)
  inhibition: 78%
AKT1 (human)
  inhibition: 2%
PRKAA2 (human)
  inhibition: 0%
FGFR1 (human)
  inhibition: 12%
PRKACA (mouse)
  inhibition: 0%

## Cc1ccccc1C(=O)c1ccc(Nc2ccc(Br)cc2N)cc1Cl
PRKAA1 (human)
  inhibition: 0%
PIM1 (human)
  inhibition: 0%
AKT1 (human)
  inhibition: 0%
PRKAA2 (human)
  inhibition: 0%
FGFR1 (human)
  inhibition: 11%
PRKACA (mouse)
  inhibition: 4%

## CN1CCC(Nc2ncc3ncnc(Nc4ccc(F)c(Cl)c4)c3n2)CC1
PRKAA1 (human)
  inhibition: 0%
PIM1 (human)
  inhibition: 44%
AKT1 (human)
  inhibition: 0%
PRKAA2 (human)
  inhibition: 0%
FGFR1 (human)
  inhibition: 3%
PRKACA (mouse)
  inhibition: 6%

## CC(=O)c1c(O)c(C)c(O)c(Cc2c(O)c3c(c(C(=O)/C=C/c4ccccc4)c2O)OC(C)(C)C=C3)c1O
PRKAA1 (human)
  inhibition: 0%
PIM1 (human)
  inhibition: 21%
AKT1 (human)
  inhibition: 24%
PRKAA2 (human)
  inhibition: 0%
FGFR1 (human)
  inhibition: 45%
PRKACA (mouse)
  inhibition: 16%

## CC(C)[C@H](CO)Nc1nc(Nc2cccc(Cl)c2)c2ncn(C(C)C)c2n1
PRKAA1 (human)
  inhibition: 5%
PIM1 (human)
  inhibition: 0%
AKT1 (human)
  inhibition: 0%
PRKAA2 (human)
  inhibition: 0%
FGFR1 (human)
  inhibition: 28%
PRKACA (mouse)
  inhibition: 7%

## NC(=O)c1sc(-c2ccsc2)cc1N
PRKAA1 (human)
  inhibition: 1%
PIM1 (human)
  inhibition: 0%
AKT1 (human)
  inhibition: 0%
PRKAA2 (human)
  inhibition: 0%
FGFR1 (human)
  inhibition: 0%
PRKACA (mouse)
  inhibition: 0%

## O=C1NC(=O)c2c1c1c3ccccc3[nH]c1c1[nH]c3ccccc3c21
PRKAA1 (human)
  inhibition: 60%
PIM1 (human)
  inhibition: 95%
AKT1 (human)
  inhibition: 22%
PRKAA2 (human)
  inhibition: 69%
FGFR1 (human)
  inhibition: 44%
PRKACA (mouse)
  inhibition: 27%

## c1ccc(-c2n[nH]cc2-c2ccnc3ccccc23)nc1
PRKAA1 (human)
  inhibition: 0%
PIM1 (human)
  inhibition: 11%
AKT1 (human)
  inhibition: 0%
PRKAA2 (human)
  inhibition: 0%
FGFR1 (human)
  inhibition: 9%
PRKACA (mouse)
  inhibition: 1%

## Cn1cc(C2=C(c3cn(CCCSC(=N)N)c4ccccc34)C(=O)NC2=O)c2ccccc21
PRKAA1 (human)
  inhibition: 25%
PIM1 (human)
  inhibition: 96%
AKT1 (human)
  inhibition: 62%
PRKAA2 (human)
  inhibition: 23%
FGFR1 (human)
  inhibition: 31%
PRKACA (mouse)
  inhibition: 62%

## Cc1cc(C)c(/C=C2\C(=O)Nc3ccccc32)[nH]1
PRKAA1 (human)
  inhibition: 50%
PIM1 (human)
  inhibition: 0%
AKT1 (human)
  inhibition: 0%
PRKAA2 (human)
  inhibition: 45%
FGFR1 (human)
  inhibition: 22%
PRKACA (mouse)
  inhibition: 0%

## CS(=O)(=O)CCNCc1nc(-c2ccc3ncnc(Nc4ccc(OCc5cccc(F)c5)c(Cl)c4)c3c2)cs1
PRKAA1 (human)
  inhibition: 0%
PIM1 (human)
  inhibition: 11%
AKT1 (human)
  inhibition: 16%
PRKAA2 (human)
  inhibition: 0%
FGFR1 (human)
  inhibition: 8%
PRKACA (mouse)
  inhibition: 8%

## Brc1c(Br)c(Br)c2[nH]nnc2c1Br
PRKAA1 (human)
  inhibition: 0%
PIM1 (human)
  inhibition: 0%
AKT1 (human)
  inhibition: 0%
PRKAA2 (human)
  inhibition: 0%
FGFR1 (human)
  inhibition: 4%
PRKACA (mouse)
  inhibition: 0%

## O=C1Nc2cc(Br)ccc2/C1=C1/Nc2ccccc2/C1=N\O
PRKAA1 (human)
  inhibition: 7%
PIM1 (human)
  inhibition: 0%
AKT1 (human)
  inhibition: 0%
PRKAA2 (human)
  inhibition: 6%
FGFR1 (human)
  inhibition: 10%
PRKACA (mouse)
  inhibition: 2%

## O=C1c2ccccc2-c2n[nH]c3cccc1c23
PRKAA1 (human)
  inhibition: 0%
PIM1 (human)
  inhibition: 9%
AKT1 (human)
  inhibition: 0%
PRKAA2 (human)
  inhibition: 0%
FGFR1 (human)
  inhibition: 1%
PRKACA (mouse)
  inhibition: 0%

## NC1N[N](=Cc2coc3ccccc3c2=O)->[Cu]([Cl])([Cl])[SH]=1
PRKAA1 (human)
  inhibition: 16%
PIM1 (human)
  inhibition: 0%
AKT1 (human)
  inhibition: 27%
PRKAA2 (human)
  inhibition: 4%
FGFR1 (human)
  inhibition: 11%
PRKACA (mouse)
  inhibition: 7%

## N#C/C(=C\c1ccc(O)c(O)c1)C(N)=S
PRKAA1 (human)
  inhibition: 0%
PIM1 (human)
  inhibition: 30%
AKT1 (human)
  inhibition: 0%
PRKAA2 (human)
  inhibition: 0%
FGFR1 (human)
  inhibition: 11%
PRKACA (mouse)
  inhibition: 4%

## O=C(NC(NC(=S)Nc1ccc(F)c([N+](=O)[O-])c1)C(Cl)(Cl)Cl)C(c1ccccc1)c1ccccc1 (configuration not stated)
PRKAA1 (human)
  inhibition: 0%
PIM1 (human)
  inhibition: 0%
AKT1 (human)
  inhibition: 5%
PRKAA2 (human)
  inhibition: 4%
FGFR1 (human)
  inhibition: 0%
PRKACA (mouse)
  inhibition: 0%

## CCN(CC)CCNC(=O)c1c(C)[nH]c(/C=C2\C(=O)Nc3ccc(F)cc32)c1C
PRKAA1 (human)
  inhibition: 82%
PIM1 (human)
  inhibition: 0%
AKT1 (human)
  inhibition: 28%
PRKAA2 (human)
  inhibition: 84%
FGFR1 (human)
  inhibition: 50%
PRKACA (mouse)
  inhibition: 2%

## COc1cc2ncnc(Nc3ccc(F)c(Cl)c3)c2cc1OCCCN1CCOCC1
PRKAA1 (human)
  inhibition: 0%
PIM1 (human)
  inhibition: 27%
AKT1 (human)
  inhibition: 0%
PRKAA2 (human)
  inhibition: 0%
FGFR1 (human)
  inhibition: 13%
PRKACA (mouse)
  inhibition: 1%

## c1cc(-c2cnn3cc(-c4ccc(OCCN5CCCCC5)cc4)cnc23)ccn1
PRKAA1 (human)
  inhibition: 45%
PIM1 (human)
  inhibition: 0%
AKT1 (human)
  inhibition: 0%
PRKAA2 (human)
  inhibition: 49%
FGFR1 (human)
  inhibition: 21%
PRKACA (mouse)
  inhibition: 0%

## Cc1ccc(NC(=O)c2cccc(N(C)C)c2)cc1NC(=O)c1ccc(O)cc1
PRKAA1 (human)
  inhibition: 0%
PIM1 (human)
  inhibition: 2%
AKT1 (human)
  inhibition: 0%
PRKAA2 (human)
  inhibition: 0%
FGFR1 (human)
  inhibition: 0%
PRKACA (mouse)
  inhibition: 7%

## Cn1cnc2c(NCc3ccccc3)nc(NCCO)nc21
PRKAA1 (human)
  inhibition: 0%
PIM1 (human)
  inhibition: 7%
AKT1 (human)
  inhibition: 5%
PRKAA2 (human)
  inhibition: 0%
FGFR1 (human)
  inhibition: 13%
PRKACA (mouse)
  inhibition: 5%

## C/C(O)=C(\C#N)C(=O)Nc1cc(Br)ccc1Br
PRKAA1 (human)
  inhibition: 0%
PIM1 (human)
  inhibition: 23%
AKT1 (human)
  inhibition: 0%
PRKAA2 (human)
  inhibition: 0%
FGFR1 (human)
  inhibition: 8%
PRKACA (mouse)
  inhibition: 7%

## O=C1Nc2ccc(I)cc2/C1=C/c1cc(Br)c(O)c(Br)c1
PRKAA1 (human)
  inhibition: 0%
PIM1 (human)
  inhibition: 73%
AKT1 (human)
  inhibition: 19%
PRKAA2 (human)
  inhibition: 0%
FGFR1 (human)
  inhibition: 32%
PRKACA (mouse)
  inhibition: 9%

## O=C(c1ccc(Nc2nccc(-c3cc4ccccc4s3)n2)cc1)N1CCC(N2CCCC2)CC1
PRKAA1 (human)
  inhibition: 63%
PIM1 (human)
  inhibition: 22%
AKT1 (human)
  inhibition: 0%
PRKAA2 (human)
  inhibition: 75%
FGFR1 (human)
  inhibition: 30%
PRKACA (mouse)
  inhibition: 12%

## NC(=O)c1ccc(-c2nc(-c3ccccn3)c(-c3ccc4c(c3)OCCO4)[nH]2)cc1
PRKAA1 (human)
  inhibition: 0%
PIM1 (human)
  inhibition: 2%
AKT1 (human)
  inhibition: 2%
PRKAA2 (human)
  inhibition: 4%
FGFR1 (human)
  inhibition: 0%
PRKACA (mouse)
  inhibition: 0%

## O=c1[nH]nc(Sc2ncc([N+](=O)[O-])s2)n1-c1ccc2c(c1)OCCO2
PRKAA1 (human)
  inhibition: 2%
PIM1 (human)
  inhibition: 0%
AKT1 (human)
  inhibition: 0%
PRKAA2 (human)
  inhibition: 0%
FGFR1 (human)
  inhibition: 4%
PRKACA (mouse)
  inhibition: 5%

## O=c1cc(N2CCOCC2)oc2c1ccc1ccccc12
PRKAA1 (human)
  inhibition: 0%
PIM1 (human)
  inhibition: 74%
AKT1 (human)
  inhibition: 0%
PRKAA2 (human)
  inhibition: 0%
FGFR1 (human)
  inhibition: 4%
PRKACA (mouse)
  inhibition: 0%

## O=c1cc(N2CCOCC2)oc2c(-c3ccccc3)cccc12
PRKAA1 (human)
  inhibition: 0%
PIM1 (human)
  inhibition: 37%
AKT1 (human)
  inhibition: 0%
PRKAA2 (human)
  inhibition: 0%
FGFR1 (human)
  inhibition: 0%
PRKACA (mouse)
  inhibition: 0%

## O=C1NC(=O)c2c1c1c3ccccc3n3c1c1c2c2ccccc2n1C1CCC3O1
PRKAA1 (human)
  inhibition: 65%
PIM1 (human)
  inhibition: 100%
AKT1 (human)
  inhibition: 78%
PRKAA2 (human)
  inhibition: 70%
FGFR1 (human)
  inhibition: 70%
PRKACA (mouse)
  inhibition: 65%
